44 compounds from patent US20120015925A1, “NOVEL BENZOTHIAZEPINE AND BENZOTHIEPINE COMPOUNDS” (ASAHI KASEI PHARMA CORPORATION, priority 2004, published 2012) can be followed below.

The test addresses T1, human IBAT (Homo sapiens, UniProt Q12908).
T1 sequence (Q12908 1-348): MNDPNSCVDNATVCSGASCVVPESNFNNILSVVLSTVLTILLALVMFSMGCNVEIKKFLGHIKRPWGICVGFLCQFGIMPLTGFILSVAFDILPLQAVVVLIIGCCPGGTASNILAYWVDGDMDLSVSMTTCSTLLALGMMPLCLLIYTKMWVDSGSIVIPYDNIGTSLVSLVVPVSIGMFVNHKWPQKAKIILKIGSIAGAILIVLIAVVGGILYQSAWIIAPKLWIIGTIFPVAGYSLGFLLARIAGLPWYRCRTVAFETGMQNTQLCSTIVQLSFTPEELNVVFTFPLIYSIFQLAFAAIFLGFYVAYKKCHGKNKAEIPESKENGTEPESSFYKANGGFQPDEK
Description: In vitro assay using Cos 7 cells, transiently expressed human IBAT. The test is classed as cell-based. To be noted: [3H]-taurocholate 8 μM uptake, 37° C., 60 minutes. The method, then:
In the present Test Example, an in vitro assay of compounds using Cos 7 cells as to inhibitory activity on transiently expressed human IBAT or rat IBAT transporter was performed according to the method described in Am. J. Physiol., 274, G157-169.
That is, […] cells/well of Cos 7 cells were seeded in a 24-well plate, and after one day, the cells were transfected with 0.3 μg/well of cDNA of human IBAT or rat IBAT using FuGENE6 (supplied from Roche). After culturing for one day after the transfection, the cells were washed once with the assay buffer, i.e., Hanks buffer containing 25 mM glucose and 10 mM HEPES (pH 7.4). The assay buffer was then replaced with the assay buffer containing the test compound. [^3H]-Taurocholate at a final concentration of 8 μM was added thereto and incubated at 37° C. for 60 minutes so that [^3H]-taurocholate was taken into Cos 7 cells by the action of human IBAT or rat IBAT. The cells were washed twice with the assay buffer containing 1 mM taurocholate, and subsequently lysed with 0.2 M NaOH to stop the reaction. The cell lysate was added to 4 mL of liquid scintillation cocktail, which was then thoroughly vortexed. Then the radioactivity was measured using the liquid scintillation counter.
For orientation: IC50 means the concentration at which inhibition is half-maximal. Higher therefore signals lower potency. Compound `CCCCC1(CCCC)CS(=O)(=O)c2ccc(N(C)C)cc2C(c2cccc(NC(=S)CCCCC[N+]34CCC(CC3)C(O)C4)c2)N1` (centres unmarked) [EXAMPLE 3854] displayed an IC50 of 28 nM.

Consider `CCCCC1(CCCC)CS(=O)(=O)c2ccc(N(C)C)cc2C(c2cccc(NC(=S)Nc3ccc(C[n+]4ccccc4C)cc3)c2)N1` (centres unmarked) [EXAMPLE 5407], for which the IC50 worked out at 52 nM.

With `CCCCC1(CCCC)CS(=O)(=O)c2ccc(N(C)C)cc2C(c2cccc(NC(=S)Nc3ccc(C[n+]4c(C)cc(C)cc4C)cc3)c2)N1` (centres unmarked) [EXAMPLE 5409], the IC50 was determined as 42 nM.

Take `CCCCC1(CCCC)CS(=O)(=O)c2ccc(N(C)C)cc2C(c2cccc(NC(=S)Nc3ccc(C[n+]4ccc(C(c5ccccc5)c5ccccc5)cc4)cc3)c2)N1` (centres unmarked) [EXAMPLE 5410]: the IC50 came out at 100 nM.

For `CCCCC1(CCCC)CS(=O)(=O)c2ccc(N(C)C)cc2C(c2cccc(NC(=S)Nc3ccc(C[n+]4ccc(C(C)(C)O)cc4)cc3)c2)N1` (centres unmarked) [EXAMPLE 5412], the IC50 stood at 37 nM.

The compound `CCCCC1(CCCC)CS(=O)(=O)c2ccc(N(C)C)cc2C(c2cccc(NC(=S)Nc3ccc(C[n+]4cccc(F)c4)cc3)c2)N1` (centres unmarked) [EXAMPLE 5416] displayed a half-maximal inhibitory concentration (IC50) of 77 nM.

In the case of `CCCCC1(CCCC)CS(=O)(=O)c2ccc(N(C)C)cc2C(c2cccc(NC(=S)Nc3ccc(C[n+]4cccc(Cl)c4)cc3)c2)N1` (centres unmarked) [EXAMPLE 5418], half-maximal inhibition (IC50) was put at 69 nM. This IC50 and that of the compound before are within 1.5-fold of each other.

For the compound `CCCCC1(CCCC)CS(=O)(=O)c2ccc(N(C)C)cc2C(c2cccc(NC(=S)Nc3ccc(C[n+]4ccc(C5CCOCC5)cc4)cc3)c2)N1` (centres unmarked) [EXAMPLE 5419], inhibition was half-maximal at 39 nM (IC50).

As for `CCCCC1(CCCC)CS(=O)(=O)c2ccc(N(C)C)cc2C(c2cccc(NC(=S)Nc3ccc(C[n+]4ccccc4CCOC(C)C)cc3)c2)N1` (centres unmarked) [EXAMPLE 5420], the midpoint of inhibition, the IC50, lay at 68 nM.

Compound `CCCCC1(CCCC)CS(=O)(=O)c2ccc(N(C)C)cc2C(c2cccc(NC(=S)Nc3ccc(C[N+]45CCC(CC4)CC5)cc3C)c2)N1` (centres unmarked) [EXAMPLE P317] gave an IC50 of 49 nM.

Compound `CCCCC1(CCCC)CS(=O)(=O)c2ccc(N(C)C)cc2C(c2cccc(NC(=S)Nc3ccc(C[N+]45CCC(CC4)CC5)c(F)c3)c2)N1` (centres unmarked) [EXAMPLE P319] displayed an IC50 of 42 nM.

Consider `CCCCC1(CCCC)CS(=O)(=O)c2ccc(N(C)C)cc2C(c2cccc(NC(=S)Nc3ccc(C[N+]45CCC(CC4)CC5)cc3Cl)c2)N1` (centres unmarked) [EXAMPLE P320], for which the 50% inhibitory concentration (IC50) amounted to 41 nM.

`CCCCC1(CCCC)CS(=O)(=O)c2ccc(N(C)C)cc2C(c2cccc(NC(=S)Nc3ccc(C[N+]45CCC(CC4)CC5)c(Cl)c3)c2)N1` (centres unmarked) [EXAMPLE P321] came in with an IC50 of 45 nM.

`CCCCC1(CCCC)CS(=O)(=O)c2ccc(N(C)C)cc2C(c2cccc(NC(=S)Nc3ccc(C[N+]45CCC(CC4)CC5)cc3Br)c2)N1` (centres unmarked) [EXAMPLE P322] came in with a half-maximal inhibitory concentration (IC50) of 62 nM.

Compound `CCCCC1(CCCC)CS(=O)(=O)c2ccc(N(C)C)cc2C(c2cccc(NC(=S)Nc3ccc(C[N+]45CCC(CC4)CC5)c(Br)c3)c2)N1` (centres unmarked) [EXAMPLE P323] registered an IC50 of 32 nM.

Compound `CCCCC1(CCCC)CS(=O)(=O)c2ccc(N(C)C)cc2C(c2cccc(NC(=S)Nc3ccc(C[N+]45CCC(CC4)CC5)c(C(F)(F)F)c3)c2)N1` (centres unmarked) [EXAMPLE P324] registered an IC50 of 37 nM. The IC50 values of the last two compounds are within 1.5-fold of each other.

`CCCCC1(CCCC)CS(=O)(=O)c2ccc(N(C)C)cc2C(c2cccc(NC(=S)Nc3c(C)cc(C[N+]45CCC(CC4)CC5)cc3C)c2)N1` (centres unmarked) [EXAMPLE P326] had an IC50 of 100 nM. This IC50 is about 2.7-fold higher than that of the compound before.

For the compound `CCCCC1(CCCC)CS(=O)(=O)c2ccc(N(C)C)cc2C(c2cccc(NC(=S)Nc3ccc(C[N+](C)(C)Cc4ccccc4)cc3C)c2)N1` (centres unmarked) [EXAMPLE P328], the midpoint of inhibition, the IC50, lay at 38 nM.

In turn, `CCCCC1(CCCC)CS(=O)(=O)c2ccc(N(C)C)cc2C(c2cccc(NC(=S)Nc3ccc(C[N+](C)(C)Cc4ccccc4)cc3F)c2)N1` (centres unmarked) [EXAMPLE P330] gave an IC50 of 32 nM.

`CCCCC1(CCCC)CS(=O)(=O)c2ccc(N(C)C)cc2C(c2cccc(NC(=S)Nc3ccc(C[N+](C)(C)Cc4ccccc4)c(F)c3)c2)N1` (centres unmarked) [EXAMPLE P331] returned an IC50 of 35 nM.

The compound `CCCCC1(CCCC)CS(=O)(=O)c2ccc(N(C)C)cc2C(c2cccc(NC(=S)Nc3ccc(C[N+](C)(C)Cc4ccccc4)cc3Cl)c2)N1` (centres unmarked) [EXAMPLE P332] came in with an IC50 of 46 nM.

Take `CCCCC1(CCCC)CS(=O)(=O)c2ccc(N(C)C)cc2C(c2cccc(NC(=S)Nc3ccc(C[N+](C)(C)Cc4ccccc4)c(Cl)c3)c2)N1` (centres unmarked) [EXAMPLE P333]: the concentration for half-maximal inhibition (IC50) was found to be 44 nM.

Compound `CCCCC1(CCCC)CS(=O)(=O)c2ccc(N(C)C)cc2C(c2cccc(NC(=S)Nc3ccc(C[N+](C)(C)Cc4ccccc4)cc3Br)c2)N1` (centres unmarked) [EXAMPLE P334] displayed a half-inhibitory concentration (IC50) of 37 nM.

Consider `CCCCC1(CCCC)CS(=O)(=O)c2ccc(N(C)C)cc2C(c2cccc(NC(=S)Nc3ccc(C[N+](C)(C)Cc4ccccc4)c(Br)c3)c2)N1` (centres unmarked) [EXAMPLE P335], for which the 50% inhibitory concentration (IC50) came to 68 nM.

Turning to `CCCCC1(CCCC)CS(=O)(=O)c2ccc(N(C)C)cc2C(c2cccc(NC(=S)Nc3c(C)cc(C[N+](C)(C)Cc4ccccc4)cc3C)c2)N1` (centres unmarked) [EXAMPLE P338], the half-maximal inhibitory concentration (IC50) amounted to 47 nM.

As for `CCCCC1(CCCC)CS(=O)(=O)c2ccc(N(C)C)cc2C(c2cccc(NC(=S)Nc3ccc(C[N+]45CCC(c6ccccc6)(CC4)CC5)c([N+](=O)[O-])c3)c2)N1` (centres unmarked) [EXAMPLE P349], the concentration for half-maximal inhibition (IC50) came to 41 nM.

In the case of `CCCCC1(CCCC)CS(=O)(=O)c2ccc(N(C)C)cc2C(c2cccc(NC(=S)Nc3c(C)cc(C[N+]45CCC(c6ccccc6)(CC4)CC5)cc3C)c2)N1` (centres unmarked) [EXAMPLE P350], inhibition was half-maximal at 40 nM (IC50).

`CCCCC1(CCCC)CS(=O)(=O)c2ccc(N(C)C)cc2C(c2cccc(NC(=S)Nc3ccc(C[n+]4ccc(C(C)(C)C)cc4)cc3C)c2)N1` (centres unmarked) [EXAMPLE P364] registered an IC50 of 48 nM. The IC50 values of the last two compounds are within 1.5-fold of each other.

`CCCCC1(CCCC)CS(=O)(=O)c2ccc(N(C)C)cc2C(c2cccc(NC(=S)Nc3ccc(C[n+]4ccc(C(C)(C)C)cc4)c(F)c3)c2)N1` (centres unmarked) [EXAMPLE P367]: it took 23 nM to reach half-maximal inhibition (IC50). This IC50 is about 2.1-fold lower than that of the compound before.

`CCCCC1(CCCC)CS(=O)(=O)c2ccc(N(C)C)cc2C(c2cccc(NC(=S)Nc3ccc(C[n+]4ccc(C(C)(C)C)cc4)cc3Cl)c2)N1` (centres unmarked) [EXAMPLE P368]: the IC50 was found to be 29 nM.

With `CCCCC1(CCCC)CS(=O)(=O)c2ccc(N(C)C)cc2C(c2cccc(NC(=S)Nc3ccc(C[n+]4ccc(C(C)(C)C)cc4)c(Cl)c3)c2)N1` (centres unmarked) [EXAMPLE P369], the midpoint of inhibition, the IC50, lay at 34 nM.

As to `CCCCC1(CCCC)CS(=O)(=O)c2ccc(N(C)C)cc2C(c2cccc(NC(=S)Nc3ccc(C[n+]4ccc(C(C)(C)C)cc4)cc3Br)c2)N1` (centres unmarked) [EXAMPLE P370], the IC50 came to 30 nM.

`CCCCC1(CCCC)CS(=O)(=O)c2ccc(N(C)C)cc2C(c2cccc(NC(=S)Nc3ccc(C[n+]4ccc(C(C)(C)C)cc4)c(Br)c3)c2)N1` (centres unmarked) [EXAMPLE P371] registered an IC50 of 28 nM.

As for `CCCCC1(CCCC)CS(=O)(=O)c2ccc(N(C)C)cc2C(c2cccc(NC(=S)Nc3ccc(C[n+]4ccc(C(C)(C)C)cc4)c(C(F)(F)F)c3)c2)N1` (centres unmarked) [EXAMPLE P372], the IC50 worked out at 35 nM.

For `CCCCC1(CCCC)CS(=O)(=O)c2ccc(N(C)C)cc2C(c2cccc(NC(=S)Nc3ccc(C[n+]4ccc(C(C)(C)C)cc4)c([N+](=O)[O-])c3)c2)N1` (centres unmarked) [EXAMPLE P373], the IC50 was 97 nM.

In the case of `CCCCC1(CCCC)CS(=O)(=O)c2ccc(N(C)C)cc2C(c2cccc(NC(=S)Nc3c(C)cc(C[n+]4ccc(C(C)(C)C)cc4)cc3C)c2)N1` (centres unmarked) [EXAMPLE P374], the IC50 worked out at 33 nM.

`CCCCC1(CCCC)CS(=O)(=O)c2ccc(N(C)C)cc2C(c2cccc(NC(=S)Nc3ccc(C[n+]4ccc(-c5ccccc5)cc4)cc3C)c2)N1` (centres unmarked) [EXAMPLE P376] came in with an IC50 of 37 nM.

In turn, `CCCCC1(CCCC)CS(=O)(=O)c2ccc(N(C)C)cc2C(c2cccc(NC(=S)Nc3ccc(C[n+]4ccc(-c5ccccc5)cc4)cc3F)c2)N1` (centres unmarked) [EXAMPLE P378] came in with a concentration for half-maximal inhibition (IC50) of 34 nM. The IC50 values of the last two compounds are within 1.5-fold of each other.

`CCCCC1(CCCC)CS(=O)(=O)c2ccc(N(C)C)cc2C(c2cccc(NC(=S)Nc3ccc(C[n+]4ccc(-c5ccccc5)cc4)c(F)c3)c2)N1` (centres unmarked) [EXAMPLE P379] returned an IC50 of 26 nM. This IC50 and that of the compound before are within 1.5-fold of each other.

`CCCCC1(CCCC)CS(=O)(=O)c2ccc(N(C)C)cc2C(c2cccc(NC(=S)Nc3ccc(C[n+]4ccc(-c5ccccc5)cc4)cc3Cl)c2)N1` (centres unmarked) [EXAMPLE P380] gave a concentration for half-maximal inhibition (IC50) of 18 nM.

`CCCCC1(CCCC)CS(=O)(=O)c2ccc(N(C)C)cc2C(c2cccc(NC(=S)Nc3ccc(C[n+]4ccc(-c5ccccc5)cc4)c(Cl)c3)c2)N1` (centres unmarked) [EXAMPLE P381] returned a 50% inhibitory concentration (IC50) of 28 nM. Against the preceding compound, the IC50 is about 1.6-fold higher.

In turn, `CCCCC1(CCCC)CS(=O)(=O)c2ccc(N(C)C)cc2C(c2cccc(NC(=S)Nc3ccc(C[n+]4ccc(-c5ccccc5)cc4)cc3Br)c2)N1` (centres unmarked) [EXAMPLE P382] yielded a concentration for half-maximal inhibition (IC50) of 28 nM.

As for `CCCCC1(CCCC)CS(=O)(=O)c2ccc(N(C)C)cc2C(c2cccc(NC(=S)Nc3ccc(C[n+]4ccc(-c5ccccc5)cc4)c(Br)c3)c2)N1` (centres unmarked) [EXAMPLE P383], half-maximal inhibition (IC50) required 26 nM.

Regarding `CCCCC1(CCCC)CS(=O)(=O)c2ccc(N(C)C)cc2C(c2cccc(NC(=S)Nc3ccc(C[n+]4ccc(-c5ccccc5)cc4)c(C(F)(F)F)c3)c2)N1` (centres unmarked) [EXAMPLE P384], half-maximal inhibition (IC50) required 32 nM.
